Experimental data: patent US8178553B2, “Compounds for the treatment of inflammatory disorders” (Schering Corporation, priority 2006, dated 2012)

What follows are compounds tested against T1, purified catalytic domain of recombinant human TACE (rhTACEc) (Homo sapiens, UniProt P78536, N452Q/S266A) (assay: TACE kinetic assay, cleavage of internally quenched fluorescent peptide substrate SPDL-3). Conditions: not given.
T1 construct: rhTACEc, Residue 215 to 477 with two mutation (S266A and N452Q) and a 6xHis tail; 6xHis (C); made in house; host or cells: baculovirus/Hi5 insect cells
Assay type: biochemical
Description: TACE activity is determined by a kinetic assay measuring the rate of increase in fluorescent intensity generated by TACE catalyzed cleavage of an internally quenched peptide substrate (SPDL-3). […] It is purified from the baculovirus/Hi5 cells expression system using affinity chromatography. […] MCA is (7-Methoxycoumarin-4-yl)acetyl. Dpa is N-3-(2,4-Dinitrophenyl)-L-2,3-diaminopropionyl.
A 50 μl assay mixture contains 20 mM HEPES, pH 7.3, 5 mM CaCl2, 100 µM ZnCl2, 2% DMSO, 0.04% Methylcellulose, 30 μM SPDL-3, 70 pM rhTACEc and a test compound. RhTACEc is pre-incubated with the testing compound for 90 min. at 25° C. Reaction is started by addition of the substrate. […] Rate of enzymatic reaction is shown as Units per second. Effect of a test compound is shown as % of TACE activity in the absence of the compound.

T1 sequence (P78536 215-477 S266A/N452Q): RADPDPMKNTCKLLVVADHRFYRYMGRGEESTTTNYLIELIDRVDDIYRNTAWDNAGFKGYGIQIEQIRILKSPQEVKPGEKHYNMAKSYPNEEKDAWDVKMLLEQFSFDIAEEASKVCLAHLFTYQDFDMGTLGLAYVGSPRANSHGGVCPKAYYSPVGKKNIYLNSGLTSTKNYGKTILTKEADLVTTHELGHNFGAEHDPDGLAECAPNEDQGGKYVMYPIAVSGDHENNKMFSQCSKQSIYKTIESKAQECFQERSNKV

Row | SMILES | Ki [nM]
1 | COc1ccc2c(c1)C(=O)N(C[C@@]1(c3ccc(OC(=O)N(C)C)cc3)NC(=O)NC1=O)C2 [Compound 93] | < 10

Same assay, conditions: Specific TACE inhibitory activity of representative compounds; read-out: Ki

Row | SMILES | Ki [nM]
2 | COc1ccc2c(c1)C(=O)N(C[C@@]1(c3ccc(-c4cc(C(=O)NC5CC5)cc(C)n4)cc3)NC(=O)NC1=O)C2 [Compound 64] | 0.15
3 | COc1ccc2c(c1)C(=O)N(C[C@@]1(c3ccc(-c4ncccc4C#N)cc3)NC(=O)NC1=O)C2 [Compound 66] | 0.09
4 | COc1ccc2c(c1)C(=O)N(C[C@@]1(c3ccc(-c4cnc(N)c(C(N)=O)c4)cc3)NC(=O)NC1=O)C2 [Compound 68] | 0.23
5 | COc1ccc2c(c1)C(=O)N(C[C@@]1(c3ccc(-c4cccc(C(N)=O)n4)cc3)NC(=O)NC1=O)C2 [Compound 76] | 0.66
6 | CNC(=O)c1ccc(Oc2ccc([C@]3(CN4Cc5ccc(OC)cc5C4=O)NC(=O)NC3=O)cc2)cc1 [Compound 84] | 4
7 | COc1ccc2c(c1)C(=O)N(C[C@@]1(c3ccc(Oc4cccc(C(N)=O)c4)cc3)NC(=O)NC1=O)C2 [Compound 85] | 0.46

Next, values leading:

Row | Ki [nM] | SMILES
8 | 0.39 | COc1ccc2c(c1)C(=O)N(C[C@@]1(c3cc4cc(/C=N/O)ccc4o3)NC(=O)NC1=O)C2 [Compound 97]
9 | 0.71 | COc1ccc2c(c1)C(=O)N(C[C@@]1(c3cc4cc(C(N)=O)cnc4o3)NC(=O)NC1=O)C2 [Compound 98]

Same assay, conditions: TACE inhibition, Table 1; read-out: Ki Rating

Row | SMILES | Ki [nM]
10 | COc1ccc2c(c1)C(=O)N(C[C@@]1(c3ccc(-c4cc(C(=O)NC5CC5)ccn4)cc3)NC(=O)NC1=O)C2 [Compound 60] | < 10
11 | CNC(=O)c1cccnc1-c1ccc([C@]2(CN3Cc4ccc(OC)cc4C3=O)NC(=O)NC2=O)cc1 [Compound 61] | < 10
12 | COc1ccc2c(c1)C(=O)N(C[C@@]1(c3ccc(-c4ncccc4C(=O)NC4CC4)cc3)NC(=O)NC1=O)C2 [Compound 62] | < 10
13 | COc1ccc2c(c1)C(=O)N(C[C@@]1(c3ccc(-c4ncccc4C(=O)N(C)C)cc3)NC(=O)NC1=O)C2 [Compound 63] | < 10
14 | COc1ccc2c(c1)C(=O)N(C[C@@]1(c3ccc(-c4cc(C(=O)NC5CC5)cc(C)n4)cc3)NC(=O)NC1=O)C2 [Compound 64] | < 10
15 | COc1ccc2c(c1)C(=O)N(C[C@@]1(c3ccc(-c4cnc(N)c(C(=O)NC5CC5)c4)cc3)NC(=O)NC1=O)C2 [Compound 65] | < 10
16 | COc1ccc2c(c1)C(=O)N(C[C@@]1(c3ccc(-c4ncccc4C#N)cc3)NC(=O)NC1=O)C2 [Compound 66] | < 10
17 | COc1ccc2c(c1)C(=O)N(C[C@@]1(c3ccc(-c4cc(C(N)=O)cc(C)n4)cc3)NC(=O)NC1=O)C2 [Compound 67] | < 10
18 | COc1ccc2c(c1)C(=O)N(C[C@@]1(c3ccc(-c4cnc(N)c(C(N)=O)c4)cc3)NC(=O)NC1=O)C2 [Compound 68] | < 10
19 | CCNC(=O)c1cnc(-c2ccc([C@]3(CN4Cc5ccc(OC)cc5C4=O)NC(=O)NC3=O)cc2)cn1 [Compound 70] | < 10
20 | COc1ccc2c(c1)C(=O)N(C[C@@]1(c3ccc(-c4cnc(C(=O)NC5CC5)cn4)cc3)NC(=O)NC1=O)C2 [Compound 71] | < 10
21 | COc1ccc2c(c1)C(=O)N(C[C@@]1(c3ccc(-c4cnc(C(=O)NCC(F)(F)F)cn4)cc3)NC(=O)NC1=O)C2 [Compound 72] | < 10
22 | COc1ccc2c(c1)C(=O)N(C[C@@]1(c3ccc(-c4cc(C#N)ccn4)cc3)NC(=O)NC1=O)C2 [Compound 73] | < 10
23 | COC(=O)c1ccnc(-c2ccc([C@]3(CN4Cc5ccc(OC)cc5C4=O)NC(=O)NC3=O)cc2)c1 [Compound 74] | < 10
24 | COc1ccc2c(c1)C(=O)N(C[C@@]1(c3ccc(-c4ccc(C(N)=O)nc4)cc3)NC(=O)NC1=O)C2 [Compound 75] | < 10
25 | COc1ccc2c(c1)C(=O)N(C[C@@]1(c3ccc(-c4cccc(C(N)=O)n4)cc3)NC(=O)NC1=O)C2 [Compound 76] | < 10
26 | CCOC(=O)c1n[nH]c2ccc(-c3ccc([C@]4(CN5Cc6ccc(OC)cc6C5=O)NC(=O)NC4=O)cc3)cc12 [Compound 77] | < 10
27 | COc1ccc2c(c1)C(=O)N(C[C@@]1(c3ccc(-c4ccc5[nH]nc(C(N)=O)c5c4)cc3)NC(=O)NC1=O)C2 [Compound 78] | < 10
28 | COc1ccc2c(c1)C(=O)N(C[C@@]1(c3ccc(-c4cnn(C)c4C#N)cc3)NC(=O)NC1=O)C2 [Compound 80] | < 10
29 | COc1ccc2c(c1)C(=O)N(C[C@@]1(c3ccc(-c4cccc(C#N)c4)cc3)NC(=O)NC1=O)C2 [Compound 81] | < 10
30 | COc1ccc2c(c1)C(=O)N(C[C@@]1(c3ccc(Oc4ccc(C(=O)N5CCOCC5)cc4)cc3)NC(=O)NC1=O)C2 [Compound 82] | < 10
31 | COc1ccc2c(c1)C(=O)N(C[C@@]1(c3ccc(Oc4ccc(C(=O)NCCN(C)C)cc4)cc3)NC(=O)NC1=O)C2 [Compound 83] | < 10
32 | CNC(=O)c1ccc(Oc2ccc([C@]3(CN4Cc5ccc(OC)cc5C4=O)NC(=O)NC3=O)cc2)cc1 [Compound 84] | < 10
33 | COc1ccc2c(c1)C(=O)N(C[C@@]1(c3ccc(Oc4cccc(C(N)=O)c4)cc3)NC(=O)NC1=O)C2 [Compound 85] | < 10
34 | COC(=O)c1cccc(Oc2ccc([C@]3(CN4Cc5ccc(OC)cc5C4=O)NC(=O)NC3=O)cc2)c1 [Compound 86] | < 10
35 | COc1ccc2c(c1)C(=O)N(C[C@@]1(c3ccc(Oc4cccc(C(=O)N5CCOCC5)c4)cc3)NC(=O)NC1=O)C2 [Compound 87] | < 10
36 | COc1ccc2c(c1)C(=O)N(C[C@@]1(c3ccc(Oc4cccc(C(=O)N(C)C)c4)cc3)NC(=O)NC1=O)C2 [Compound 88] | < 10
37 | CNC(=O)c1cccc(Oc2ccc([C@]3(CN4Cc5ccc(OC)cc5C4=O)NC(=O)NC3=O)cc2)c1 [Compound 89] | < 10

Continued, values first:

Row | Ki [nM] | SMILES
38 | < 10 | COc1ccc2c(c1)C(=O)N(C[C@@]1(c3ccc(Oc4cccc(C(=O)NCCN(C)C)c4)cc3)NC(=O)NC1=O)C2 [Compound 90]
39 | < 10 | CC#CCOc1ccc([C@]2(CN3Cc4ccc(OC)cc4C3=O)NC(=O)NC2=O)cc1 [Compound 91]
40 | < 10 | COc1ccc2c(c1)C(=O)N(C[C@@]1(c3ccc(OCC#CCO)cc3)NC(=O)NC1=O)C2 [Compound 92]
41 | < 10 | COc1ccc2c(c1)C(=O)N(C[C@@]1(c3ccc(C#Cc4cccnc4)cc3)NC(=O)NC1=O)C2 [Compound 94]
42 | 10 to 100 | COc1ccc2c(c1)C(=O)N(C[C@]1(c3ccc(C#Cc4cccnc4)cc3)NC(=O)NC1=O)C2 [Compound 95]
43 | 10 to 100 | COc1ccc2c(c1)C(=O)N(CC1(c3ccc(-c4ccccc4CCN)cc3)NC(=O)NC1=O)C2 (stereo not shown) [Compound 96]
44 | < 10 | COc1ccc2c(c1)C(=O)N(C[C@@]1(c3cc4cc(/C=N/O)ccc4o3)NC(=O)NC1=O)C2 [Compound 97]
45 | < 10 | COc1ccc2c(c1)C(=O)N(C[C@@]1(c3cc4cc(C(N)=O)cnc4o3)NC(=O)NC1=O)C2 [Compound 98]
46 | < 10 | COc1ccc2c(c1)C(=O)N(C[C@@]1(c3ccc(C(=O)N4CCOCC4)cc3)NC(=O)NC1=O)C2 [Compound 99]
47 | < 10 | COc1ccc2c(c1)C(=O)N(C[C@@]1(c3ccc(C(=O)O)cc3)NC(=O)NC1=O)C2 [Compound 100]
48 | < 10 | COc1ccc2c(c1)C(=O)N(C[C@@]1(c3ccc(C#N)cc3)NC(=O)NC1=O)C2 [Compound 101]
49 | < 10 | COc1ccc2c(c1)C(=O)N(C[C@@]1(c3cc4cc(C#N)ccc4o3)NC(=O)NC1=O)C2 [Compound 102]
50 | < 10 | COc1ccc2c(c1)C(=O)N(C[C@@]1(c3ccc(C(N)=O)cc3)NC(=O)NC1=O)C2 [Compound 103]
51 | < 10 | COc1ccc2c(c1)C(=O)N(C[C@@]1(c3ccc(-c4cccnc4C#N)cc3)NC(=O)NC1=O)C2 [Compound 104]
52 | < 10 | COc1ccc2c(c1)C(=O)N(C[C@@]1(c3ccc(-c4ccc(S(N)(=O)=O)cc4)cc3)NC(=O)NC1=O)C2 [Compound 105]
